# Values quoted from earlier work as cited in patent US7129073B2, “Regulation of neuronal function through metabotropic glutamate receptor signaling pathways” (The Rockefeller University, priority 2001, dated 2006).
# Target: T1, T-cell protein-tyrosine phosphatase (TC PTP) (Homo sapiens, UniProt P17706)
# T1 sequence (P17706 1-415): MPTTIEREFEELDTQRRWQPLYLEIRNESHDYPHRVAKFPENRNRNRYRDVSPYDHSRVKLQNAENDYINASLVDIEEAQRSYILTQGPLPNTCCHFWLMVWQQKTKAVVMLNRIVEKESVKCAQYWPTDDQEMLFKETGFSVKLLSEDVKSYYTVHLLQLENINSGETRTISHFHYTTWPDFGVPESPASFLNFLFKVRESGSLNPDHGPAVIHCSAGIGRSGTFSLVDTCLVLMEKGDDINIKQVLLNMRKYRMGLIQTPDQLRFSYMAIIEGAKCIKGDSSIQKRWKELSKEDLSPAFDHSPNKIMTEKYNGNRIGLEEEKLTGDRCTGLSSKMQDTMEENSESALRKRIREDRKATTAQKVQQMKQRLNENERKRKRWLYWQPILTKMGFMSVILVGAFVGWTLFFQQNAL
# Settings: cited from earlier work
smiles,measurement,setting,value
[Na+].[Na+].[Na+].[O]=[V]([O-])([O-])[O-] [Na3VO4],effect on TC PTP-dependent change in polarization,50 μM Na3VO4,inhibited
same,IC50,FP-based direct binding assay,4 nM
